Each structure is given as a SMILES string. Active and inactive are the calls of the source. No cut-off for these calls is given here.

From ChEMBL document CHEMBL4425171, “Cholinesterase inhibitory activity of chlorophenoxy derivatives-Histamine H3 receptor ligands” (Bioorg Med Chem Lett, 2016) come the findings set out here.

The target of assay [1] is T1, Cholinesterase (Equus caballus, UniProt P81908). Put plainly: Inhibition of equine serum BChE using butyrylthiocholine chloride as substrate preincubated for 4.5 mins followed by substrate addition measured after 2.5 mins by Ellmans method. (In general: DTNB colorimetry detects thiols as they appear.)
T1 sequence (P81908 whole entry): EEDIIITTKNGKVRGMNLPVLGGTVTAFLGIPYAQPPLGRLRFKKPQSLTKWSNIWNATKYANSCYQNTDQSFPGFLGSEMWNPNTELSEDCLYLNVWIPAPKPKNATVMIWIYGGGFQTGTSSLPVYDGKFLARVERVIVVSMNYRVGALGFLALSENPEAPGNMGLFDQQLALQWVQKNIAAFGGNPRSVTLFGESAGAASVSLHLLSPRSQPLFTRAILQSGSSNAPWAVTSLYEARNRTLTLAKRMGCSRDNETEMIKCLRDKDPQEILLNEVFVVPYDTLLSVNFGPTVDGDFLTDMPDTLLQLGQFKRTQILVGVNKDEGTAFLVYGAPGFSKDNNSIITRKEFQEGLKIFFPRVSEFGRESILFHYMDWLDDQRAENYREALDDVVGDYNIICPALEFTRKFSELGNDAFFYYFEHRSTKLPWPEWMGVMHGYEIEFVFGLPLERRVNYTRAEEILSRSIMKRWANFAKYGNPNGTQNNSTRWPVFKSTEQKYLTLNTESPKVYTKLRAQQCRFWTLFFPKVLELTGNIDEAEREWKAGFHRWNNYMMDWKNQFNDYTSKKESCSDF
The target in the next assay is Acetylcholinesterase (Electrophorus electricus, UniProt O42275). Put plainly: Inhibition of electric eel AChE using acetylthiocholine iodide as substrate preincubated for 5 mins followed by substrate addition measured after 5 mins by Ellmans method.
Sequence of Acetylcholinesterase (O42275 whole entry): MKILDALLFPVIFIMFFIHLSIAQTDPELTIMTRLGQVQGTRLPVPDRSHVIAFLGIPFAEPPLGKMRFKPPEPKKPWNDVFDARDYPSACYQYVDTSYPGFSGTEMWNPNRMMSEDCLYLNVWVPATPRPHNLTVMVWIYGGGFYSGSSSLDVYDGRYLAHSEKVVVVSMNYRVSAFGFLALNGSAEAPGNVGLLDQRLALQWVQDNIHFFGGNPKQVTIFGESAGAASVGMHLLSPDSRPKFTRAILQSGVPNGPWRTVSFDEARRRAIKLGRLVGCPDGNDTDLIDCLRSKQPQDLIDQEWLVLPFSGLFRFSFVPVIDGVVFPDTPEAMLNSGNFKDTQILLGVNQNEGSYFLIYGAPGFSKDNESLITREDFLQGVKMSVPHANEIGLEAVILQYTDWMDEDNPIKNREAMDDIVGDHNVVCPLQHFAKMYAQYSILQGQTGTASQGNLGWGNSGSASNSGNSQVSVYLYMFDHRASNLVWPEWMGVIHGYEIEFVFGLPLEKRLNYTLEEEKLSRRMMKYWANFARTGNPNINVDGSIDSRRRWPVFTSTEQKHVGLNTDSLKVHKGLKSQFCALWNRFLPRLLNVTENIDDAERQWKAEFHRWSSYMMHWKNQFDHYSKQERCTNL
For assay [2], the target named is Acetylcholinesterase (Electrophorus electricus) (UniProt O42275). Kind of assay: Inhibition of electric eel AChE using acetylthiocholine iodide as substrate at 10 uM preincubated for 5 mins followed by substrate addition measured after 5 mins by Ellmans method.
Sequence of Acetylcholinesterase (Electrophorus electricus) (O42275 24-633 limits assumed): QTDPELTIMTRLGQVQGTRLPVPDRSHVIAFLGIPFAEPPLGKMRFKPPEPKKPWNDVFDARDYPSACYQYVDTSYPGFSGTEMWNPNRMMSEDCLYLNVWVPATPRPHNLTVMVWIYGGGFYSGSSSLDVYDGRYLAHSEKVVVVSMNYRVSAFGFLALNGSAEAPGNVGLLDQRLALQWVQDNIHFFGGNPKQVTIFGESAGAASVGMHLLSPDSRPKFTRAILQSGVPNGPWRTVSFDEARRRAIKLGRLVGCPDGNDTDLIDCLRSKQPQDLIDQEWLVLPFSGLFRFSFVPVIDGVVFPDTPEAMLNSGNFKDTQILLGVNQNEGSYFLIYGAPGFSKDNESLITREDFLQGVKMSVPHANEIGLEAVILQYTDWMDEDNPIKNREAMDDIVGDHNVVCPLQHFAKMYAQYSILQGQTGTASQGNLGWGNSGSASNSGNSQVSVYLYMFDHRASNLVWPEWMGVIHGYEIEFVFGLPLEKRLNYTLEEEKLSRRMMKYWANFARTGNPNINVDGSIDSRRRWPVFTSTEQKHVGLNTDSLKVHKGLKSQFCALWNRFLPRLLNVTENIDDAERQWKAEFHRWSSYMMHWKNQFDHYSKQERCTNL
In assay [3] the target is Cholinesterase (Equus caballus) (UniProt P81908). Kind of assay: Inhibition of equine serum BChE using butyrylthiocholine chloride as substrate at 10 uM preincubated for 5 mins followed by substrate addition measured after 5 mins by Ellmans method.
Sequence of Cholinesterase (Equus caballus) (P81908 whole entry): as the sequence (P81908 whole entry) above
For assay [4], the target named is T1, Cholinesterase.
Description: Inhibition of equine serum BChE using butyrylthiocholine chloride as substrate preincubated for 5 mins followed by substrate addition measured after 5 mins by Ellmans method
The next assay has as its target Histamine H3 receptor (Homo sapiens, UniProt Q9Y5N1). Kind of assay: biochemical.
Assay [5] concerns the target Cholinesterase (Equus caballus) (UniProt P81908). Put plainly: Non-competitive inhibition of equine serum BChE using butyrylthiocholine chloride as substrate at 2 to 5 uM by Lineweaver-Burk double reciprocal plot analysis.
The target in assay [6] is Acetylcholinesterase (Electrophorus electricus) (UniProt O42275). Kind of assay: Mixed-type inhibition of electric eel AChE using acetylthiocholine iodide as substrate at 2 to 10 uM by Lineweaver-Burk double reciprocal plot analysis.
Assay [7] shares this target. Put plainly: Mixed-type inhibition of electric eel AChE using acetylthiocholine iodide as substrate at 5 to 20 uM by Lineweaver-Burk double reciprocal plot analysis.

Sequence of Histamine H3 receptor (Q9Y5N1 whole entry): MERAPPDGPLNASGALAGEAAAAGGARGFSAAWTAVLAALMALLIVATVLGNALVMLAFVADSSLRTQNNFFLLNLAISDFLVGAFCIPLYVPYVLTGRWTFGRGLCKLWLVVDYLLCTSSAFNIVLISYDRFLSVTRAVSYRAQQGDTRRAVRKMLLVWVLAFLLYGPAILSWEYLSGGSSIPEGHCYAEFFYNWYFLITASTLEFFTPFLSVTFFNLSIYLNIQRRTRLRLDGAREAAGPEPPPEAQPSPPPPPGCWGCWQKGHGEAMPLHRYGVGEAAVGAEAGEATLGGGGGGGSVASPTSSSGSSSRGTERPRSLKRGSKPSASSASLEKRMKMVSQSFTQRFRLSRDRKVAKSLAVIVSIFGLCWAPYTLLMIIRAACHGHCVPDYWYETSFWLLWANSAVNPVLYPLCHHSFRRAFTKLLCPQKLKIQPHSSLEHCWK
Description for Histamine H3 receptor: Displacement of [3H]Nalpha-methylhistamine from human full length recombinant histamine H3 receptor expressed in HEK293 cell membranes after 90 mins by liquid scintillation counting method

By IC50 is commonly meant the concentration that gives 50% inhibition. A high value points to weaker potency. On to `c1cc2c(cc1OCCCN1CCCCC1)CN1CCCC1=N2`, for which half-maximal inhibition at Cholinesterase [1] (IC50) required 8.2 µM.
A word on the inhibition: it is the relative decrease from the control value, in per cent. For the compound `Clc1ccc(OCCCCCCN2CCCCC2)cc1`, the IC50 at Acetylcholinesterase and against Cholinesterase [4] was more than 10 µM each time. The inhibition in assay [2] and in [3] was less than 50% throughout.
For `Clc1cccc(OCCCCCCN2CCCCCC2)c1`, the values for the IC50 at Acetylcholinesterase and against Cholinesterase [4] were 5.4 µM and 2.43 µM, respectively.
For the compound `CC1CCCN(CCCCCCOc2cccc(Cl)c2)C1` (stereo not given), the results for the concentration for half-maximal inhibition (IC50) against Acetylcholinesterase and against Cholinesterase [4] were 6.22 µM and more than 10 µM, respectively. Moreover, the inhibition in [3] is less than 50%.
For orientation: Ki means a measure of affinity in units of concentration, obtained from inhibition or displacement. Read a high Ki as lower affinity. For the compound `CC1CCCN(CCCCCCCOc2cccc(Cl)c2)C1` (stereo not given), the results for the IC50 against Acetylcholinesterase and at Cholinesterase [4] were 3.8 µM and 5.15 µM, respectively. At Histamine H3 receptor, the Ki came out at 0.446 µM.
Consider `Clc1cccc(OCCCCCCN2CCCCC2)c1`, for which the IC50 on Acetylcholinesterase is 18.6 µM; at Cholinesterase [4], more than 10 µM. Further, the inhibition in assay [3] was less than 50%.
With `CC1CCN(CCCCCCOc2cccc(Cl)c2)CC1`, the IC50 against Acetylcholinesterase was found to be 7.31 µM; against Cholinesterase [4] it was 3.53 µM.
For `Clc1ccc(OCCCOCCCN2CCCCCC2)cc1` the same measures were 7.91 µM and 4.97 µM.
On to `Clc1ccc(OCCCCCCCN2CCCCC2)cc1`, for which the IC50 on Acetylcholinesterase was 3.94 µM; against Cholinesterase [4] it was more than 10 µM. In assay [3], the inhibition was less than 50%.
In the case of `Clc1ccc(OCCCCCN2CCCCCC2)cc1`, the IC50 was more than 10 µM against Acetylcholinesterase and 3.45 µM against Cholinesterase [4]. In addition, the inhibition in [2] is less than 50%.
Turning to `Clc1ccc(OCCCCCCN2CCCCCC2)cc1`, the concentration for half-maximal inhibition (IC50) was determined as 3.88 µM at Acetylcholinesterase and 3.74 µM at Cholinesterase [4].
Consider `CC1CCN(CCCCCCOc2ccc(Cl)cc2)CC1`, for which the half-maximal inhibitory concentration (IC50) worked out at 8.11 µM against Acetylcholinesterase and 5.43 µM against Cholinesterase [4].
Regarding `CC1CCN(CCCCCOc2ccc(Cl)cc2)CC1`, the IC50 on Acetylcholinesterase and on Cholinesterase [4] was more than 10 µM in each case. The inhibition in assay [2] and in [3] was less than 50% throughout.
As to `CC1CCN(CCCCCCCOc2ccc(Cl)cc2)CC1`, the IC50 on Acetylcholinesterase is 2.74 µM; against Cholinesterase [4] it was 2.92 µM.
In the case of `CC1CCCN(CCCCCOc2ccc(Cl)cc2)C1` (stereo not given), the results for the IC50 on Acetylcholinesterase and at Cholinesterase [4] were 23.6 µM and more than 10 µM, respectively. Further, the inhibition in [3] is less than 50%.
In the case of `CC1CCN(CCCCCCCOc2cccc(Cl)c2)CC1`, the 50% inhibitory concentration (IC50) against Acetylcholinesterase turned out to be 4.9 µM; on Cholinesterase [4], 1.66 µM.
Taken in the same sequence, the figures for `Clc1cccc(OCCCCCCCN2CCCCCC2)c1` were 2.42 µM and 0.9 µM.
For `Clc1cccc(OCCCCCCCN2CCCCC2)c1` the same measures were 5.33 µM and 4.75 µM.
As to `Clc1ccc(OCCCCCCCN2CCCCCC2)cc1`, the inhibition result in assay [5] and in assay [6] was “Active” in each case. The results for the IC50 against Acetylcholinesterase and against Cholinesterase [4] were 1.93 µM and 1.64 µM, respectively.
As to `CC1CCCN(CCCCCCCOc2ccc(Cl)cc2)C1` (stereo not given), the figures for the IC50 against Acetylcholinesterase and against Cholinesterase [4] were 4.51 µM and more than 10 µM, respectively. Moreover, in [7], the inhibition entry was “Active”. The same compound had an inhibition in assay [3] of less than 50%.
As for `CC1CCCN(CCCCCCOc2ccc(Cl)cc2)C1` (stereo not given), the figures for the IC50 against Acetylcholinesterase and at Cholinesterase [4] were 4.8 µM and more than 10 µM, respectively. The compound also came in with an inhibition in [3] of less than 50%.
Turning to `Clc1ccc(OCCCCCN2CCCCC2)cc1`, the IC50 against Acetylcholinesterase and at Cholinesterase [4] was more than 10 µM in each case. Also, the inhibition in [2] and in assay [3] was less than 50% each time.
